Assay results published in patent US8796280B2, “2,3-disubstituted pyrazinesulfonamides as CRTH2 inhibitors” (Merck Serono, S.A., priority 2005, dated 2014).

Key:
CRTH2 [1] = molecular target: T1, CRTH2 (Homo sapiens (Human), UniProt Q9Y5Y4); experiment: [35S]GTPγS binding assay; format: biochemical; conditions: inhibition of [35S]GTPγS binding, membranes expressing hCRTH2, 80 nM PGD2 (antagonist activity)
Description: The [^35S]GTPγS assay measures the increase in guanine nucleotide exchange at G-proteins in cell membranes, resulting from agonist (PGD2) binding to CRTH2. This process can be monitored in vitro by incubating cell membranes containing G-proteins and CRTH2 with GDP and [^35S]GTPγS, a radiolabeled, hydrolysis-resistant analogue of GTP (see, Harrison et al., Life Sciences 74, 489-508, 2003). The addition of a pyrazine sulfonamide results in binding to CRTH2 and thus in an inhibition of agonist binding, which can be monitored as inhibition of the stimulation of GTP/GDP exchange.
Assay conditions were identical to conditions of radioligand binding assay as described in Example 21. The [^35S]GTPγS binding assay was performed at 30° C. with gentle agitation in 96-well scintillating white polystyrene plates (Perkin Elmer, USA), in a final volume of 200 μl, containing 2% of dimethylsulphoxide (Me2SO). The 2,3 substituted pyrazine sulfonamides were incubated in 20 mM HEPES/KOH pH 7.4, 1 mM MgCl2, 10 μg/ml Saponin, 3 μM GDP, 150 mM NaCl containing 10 μg of membranes expressing the hCRTH2 receptor (Euroscreen, Belgium) for 10 min. Non-specific binding was determined in the presence of 10 μM of GTPγS. Samples were incubated for 30 min in the presence of increasing concentrations of PGD2 for the determination of agonist activity, or with 80 nM of PGD2 for determination of antagonist activity, respectively. 0.15 nM of [^35S]GTPγS were subsequently added to each sample and after incubation of 30 min reactions were stopped by centrifugation at 1000×g, at 4° C. for 10 min. Supernatant was removed and [^35S]GTPγS binding was determined using a 1450 Micro-beta scintillation counter. Data were analysed using “Prism” (GraphPad Software, Inc. San Diego, USA). The determination of the IC50 values (i.e. the amount necessary to achieve 50% inhibition of binding (in μM)) were performed in 96 well plates, in a final volume of 100 μl according to the above described filtration assay. […]

CRTH2 [2] = molecular target: T1, CRTH2; experiment: Determination of Ki, equilibrium competition binding against [3H]PGD2; conditions: competition against [3H]PGD2; average of at least three independent dose response experiments; Ki calculated from IC50
Description: (§1) The inhibitory activity can be investigated by a radioligand binding assay (Sawyer et al., Br. J. Pharmocol 2002, 137, 1163-72). The radioligand binding assay was performed at room temperature in binding buffer (10 mM HEPES/KOH pH […], with protease inhibitor cocktail tablets), containing 1.5 nM [^3H]PGD2 (Amersham, 156 Cie/mmol), and 10 μg of hCRTH2 HEK293 (EBNA) cell membrane protein in a final volume of 100 μl in 96 well plates (Corning, USA). Non-specific binding was determined in the presence of 1 μM PGD2 (Cayman, USA). Competing pyrazine sulfonamides were diluted in dimethylsulphoxide so that the total volume of dimethylsulfoxide was kept constant at 1% dimethylsulphoxide (Me2SO). 10 μl of the pyrazine sulfonamides were added. Incubation (60 min at room temperature) was terminated by rapid filtration through 96 wells hydrophobic GF/C Unifilter plates (Whatman, USA). Filters were washed twice with 250 μl of Tris-HCl pH 7.4, 10 mM MnCl2, and residual radioligand bound to the filters was mixed to 100 μl of liquid scintillation cocktail (Optiphase Supermix, Perkin Elmer, USA) and binding activity was determined by counting residual radioligand using a 1450 Micro-beta scintillation counter (Wallac, UK).
Ki values were determined by equilibrium competition binding experiments against [^3H]PGD2. Ki values were calculated from the formula below and represent the average of at least three independent dose response experiments. The Ki values give the ligand concentrations necessary to inhibit 50% of the binding of 3[H]PGD2 to CRTH2. Ki=IC50/(1+[Concentration of Ligand]/Kd)]
All experiments were performed in 96 well plates, in a final volume of 100 μl according to the above described filtration assay. The concentration of membranes and 3[H]PGD2, as well as the positive and negative controls were identical to the conditions described above.

CRTH2 [3] = molecular target: T1, CRTH2; experiment: Radioligand binding assay ([3H]PGD2 displacement, hCRTH2 HEK293 (EBNA) cell membranes); conditions: 1.5 nM [3H]PGD2, 10 μg hCRTH2 HEK293 (EBNA) membrane protein, 60 min room temperature; test concentration not given
Source text: Human CRTH2 cDNA was amplified by PCR using a human urinary bladder cDNA library as a template and specific primers containing HindIII and BamHI restriction sites for cloning into the pCEP4 vector (Invitrogen). The vector construction is described in detail in Sawyer et al., Br. J. Pharmocol 2002, 137, 1163-72. The nucleotide sequence of the cloned cDNA was identical the previously reported hCRTH2 sequence (Nagata et al, 1999, J. Immunol. 162, 1278-1286).
HEK293 (EBNA) cells were transfected with the pCEP4-hCRTH2 construct using the calcium phosphate technique. Cells were maintained in culture at 37° C. in an atmosphere of 5% CO2 in Dulbecco's modified Eagle's F12 medium (Invitrogen), containing 10% heat-inactivated foetal calf serum (TerraCell International, Canada), 2 mM Glutamine, 100 units/ml of penicillin and 100 μg/ml streptomycin (Invitrogen). 48 hours after the transfection, cells were grown in presence of 300 μg/ml of Hygromycin B (Invitrogen) for 4 weeks and antibiotic resistant cells were amplified for cell membrane preparation.
Adherent HEK293 (EBNA) cells expressing hCRTH2 were cultured in 225 cm^2 cell culture flasks (Corning, USA) in 30 ml of medium. After two rinses of phosphate buffered saline (PBS), cells were harvested in 10 ml of PBS containing 1 mM EDTA, centrifuged at 500×g for 5 min at 4° C. and frozen at −80° C. The pellet was re-suspended in 50 mM Tris-HCl, pH 7.4, 2 mM EDTA, 250 mM Sucrose, containing protease inhibitor cocktail tablets, (Complete EDTA-free, Roche, Germany) and incubated 30 min at 4° C. Cells were disrupted by nitrogen cavitation (Parr Instruments, USA) at 4° C. (800 p.s.i. for 30 min), and centrifuged at 500×g for 10 min at 4° C. Pellet containing nuclei and cellular debris was discarded and supernatant was centrifuged 60 min at 4° C. at 45000×g. Membrane pellet was re-suspended in storage buffer (10 mM HEPES/KOH pH 7.4, 1 mM EDTA, 250 mM sucrose, protease inhibitor cocktail tablets) using Dounce homogenization and frozen in liquid nitrogen, and stored at −80° C.
as §1

T1 sequence (Q9Y5Y4 whole entry): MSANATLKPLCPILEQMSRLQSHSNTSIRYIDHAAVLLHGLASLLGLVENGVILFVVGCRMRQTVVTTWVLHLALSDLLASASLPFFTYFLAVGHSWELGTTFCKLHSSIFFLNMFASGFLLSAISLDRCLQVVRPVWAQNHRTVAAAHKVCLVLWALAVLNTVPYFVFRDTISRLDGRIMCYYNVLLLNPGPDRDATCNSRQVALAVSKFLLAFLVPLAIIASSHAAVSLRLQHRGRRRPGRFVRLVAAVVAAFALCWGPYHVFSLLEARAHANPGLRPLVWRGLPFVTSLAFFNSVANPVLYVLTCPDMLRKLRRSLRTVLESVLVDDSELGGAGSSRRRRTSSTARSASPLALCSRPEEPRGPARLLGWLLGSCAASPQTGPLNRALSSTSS

| IC50 (CRTH2 [1]) | Ki (CRTH2 [2]) | Inhibition hCRTH2 [%] (CRTH2 [3]) | Compound |
| --- | --- | --- | --- |
| 1400 nM | 450 nM | 86.5% | CCc1nc2ccccc2n1Cc1ccc(-c2nccnc2NS(=O)(=O)c2ccccc2C(F)(F)F)cc1 [Compound 3, N-(3-{4-[(2-ethyl-1H-benzimidazol-1-yl)methyl]phenyl}pyrazin-2-yl)-2-(trifluoromethyl)benzenesulfonamide] |
| 4600 nM | 1260 nM | 91.5% | CN(Cc1ccc(-c2nccnc2NS(=O)(=O)c2ccccc2Cl)cc1)c1ccc(OC(F)(F)F)cc1 [Compound 2, 2-chloro-N-{3-[4-({methyl[4-(trifluoromethoxy)phenyl]amino}-methyl)-phenyl]pyrazin-2-yl}benzene sulfonamide] |
| 1900 nM | 1010 nM | 94.5% | O=S(=O)(Nc1nccnc1-c1ccc(Cn2ccc3ccccc32)cc1)c1ccccc1C(F)(F)F [Compound 1, N-{3-[4-(1H-indol-1-ylmethyl)phenyl]pyrazin-2-yl}-2-(trifluoromethyl)benzene-sulfonamide] |
